This assay has as its target Tetracycline efflux protein TetA(B) (Escherichia coli). Kind of assay: Inhibition of [3H]tetracycline uptake into everted membrane vesicles, prepared from tetracycline resistant Escherichia coli D1-209.
In turn, `CN(C)[C@@H]1C(=O)C(C(N)=O)C(=O)[C@@]2(O)C(=O)C3C(=O)c4c(O)cccc4[C@H](CSCCC(=O)O)C3[C@H](O)C12` (stereo not given in full) [3-(9-Carbamoyl-7-dimethylamino-1,6,8,10a,11-pentahydroxy-10,12-dioxo-5,5a,6,6a,7,10,10a,12-octahydro-naphthacen-5-ylmethylsulfanyl)-propionic acid] yielded an IC50 of 43.2 µM.

As to `CN(C)[C@@H]1C(=O)C(C(N)=O)C(=O)[C@@]2(O)C(=O)C3C(=O)c4c(O)cccc4[C@H](CS(=O)(=O)Cc4ccccc4)C3[C@H](O)C12` (stereo not given in full) [4-Dimethylamino-3,5,10,12,12a-pentahydroxy-1,11-dioxo-6-phenylmethanesulfonylmethyl-1,4,4a,5,5a,6,11,12a-octahydro-naphthacene-2-carboxylic acid amide], the IC50 was found to be 1.5 µM.

The molecule `CN(C)[C@@H]1C(=O)C(C(N)=O)C(=O)[C@@]2(O)C(=O)C3C(=O)c4c(O)cccc4[C@H](CSc4ccccc4)C3[C@H](O)C12` (stereo not given in full) [4-Dimethylamino-3,5,10,12,12a-pentahydroxy-1,11-dioxo-6-phenylsulfanylmethyl-1,4,4a,5,5a,6,11,12a-octahydro-naphthacene-2-carboxylic acid amide] yielded an IC50 of 6.9 µM.

`COc1ccc(SC[C@H]2c3cccc(O)c3C(=O)C3C(=O)[C@]4(O)C(=O)C(C(N)=O)C(=O)[C@@H](N(C)C)C4[C@@H](O)C32)cc1` (stereo not given in full) [4-Dimethylamino-3,5,10,12,12a-pentahydroxy-6-(4-methoxy-phenylsulfanylmethyl)-1,11-dioxo-1,4,4a,5,5a,6,11,12a-octahydro-naphthacene-2-carboxylic acid amide] showed a half-inhibitory concentration (IC50) of 1.2 µM.

Consider `CSC[C@H]1c2cccc(O)c2C(=O)C2C(=O)[C@]3(O)C(=O)C(C(N)=O)C(=O)[C@@H](N(C)C)C3[C@@H](O)C21` (stereo not given in full) [4-Dimethylamino-3,5,10,12,12a-pentahydroxy-6-methylsulfanylmethyl-1,11-dioxo-1,4,4a,5,5a,6,11,12a-octahydro-naphthacene-2-carboxylic acid amide], for which 7.9 µM corresponded to half-maximal inhibition (IC50).

Regarding `CN(C)[C@@H]1C(=O)C(C(N)=O)C(=O)[C@@]2(O)C(=O)C3C(=O)c4c(O)cccc4[C@H](CSCc4ccc(Cl)cc4)C3[C@H](O)C12` (stereo not given in full) [6-(4-Chloro-benzylsulfanylmethyl)-4-dimethylamino-3,5,10,12,12a-pentahydroxy-1,11-dioxo-1,4,4a,5,5a,6,11,12a-octahydro-naphthacene-2-carboxylic acid amide], half-maximal inhibition (IC50) was put at 2.1 µM.

On to `CN(C)[C@@H]1C(=O)C(C(N)=O)C(=O)[C@@]2(O)C(=O)C3C(=O)c4c(O)cccc4[C@H](CSc4ccc(Cl)cc4)C3[C@H](O)C12` (stereo not given in full) [6-(4-Chloro-phenylsulfanylmethyl)-4-dimethylamino-3,5,10,12,12a-pentahydroxy-1,11-dioxo-1,4,4a,5,5a,6,11,12a-octahydro-naphthacene-2-carboxylic acid amide], for which the IC50 was determined as 1.6 µM.

For the molecule `CCCCSC[C@H]1c2cccc(O)c2C(=O)C2C(=O)[C@]3(O)C(=O)C(C(N)=O)C(=O)[C@@H](N(C)C)C3[C@@H](O)C21` (stereo not given in full) [6-Butylsulfanylmethyl-4-dimethylamino-3,5,10,12,12a-pentahydroxy-1,11-dioxo-1,4,4a,5,5a,6,11,12a-octahydro-naphthacene-2-carboxylic acid amide], the IC50 is 0.8 µM.

The molecule `CN(C)[C@@H]1C(=O)C(C(=O)NCN2CCOCC2)C(=O)[C@@]2(O)C(=O)C3C(=O)c4c(O)cccc4[C@H](CSC4CCCC4)C3[C@H](O)C12` (stereo not given in full) [6-Cyclopentylsulfanylmethyl-4-dimethylamino-3,5,10,12,12a-pentahydroxy-1,11-dioxo-1,4,4a,5,5a,6,11,12a-octahydro-naphthacene-2-carboxylic acid (morpholin-4-ylmethyl)-amide] showed an IC50 of 1 µM.

On to `CN(C)[C@@H]1C(=O)C(C(N)=O)C(=O)[C@@]2(O)C(=O)C3C(=O)c4c(O)cccc4[C@H](CSC(C)(C)C)C3[C@H](O)C12` (stereo not given in full) [6-tert-Butylsulfanylmethyl-4-dimethylamino-3,5,10,12,12a-pentahydroxy-1,11-dioxo-1,4,4a,5,5a,6,11,12a-octahydro-naphthacene-2-carboxylic acid amide], for which 0.5 µM corresponded to half-maximal inhibition (IC50).

By IC50 is commonly meant the concentration that inhibits the measured activity by half.

Values taken from BindingDB's records for doi:10.1021/jm00055a008 (Tufts University, 1993).
